pIC50: −log10 of the molar value.

What is called pIC50 is −log10 of the IC50, conventionally taken in molar units.

In this experiment the test system is GABA-A receptor. As to the kind of experiment: 35S-TBPS binding assay on rat cerebral cortex cell membrane. More on the design: species or system Sprague-Dawley rat. The conditions noted are these: 2 nM 35S-TBPS, GABA added, read-out: 35S-TBPS bindng test, IC50 on inhibiting the TBPS binding activity. The protocol:
1.2.1 Extraction of Cerebral Cortex Cell Membrane:
1. The cerebral cortex of male Sprague-Dawley rat was isolated.
2. A pre-chilled 0.32 M sucrose solution (one tablet of protease inhibitor was added per 100 ml) was added to the cerebral cortex (the volume of sucrose solution was 10 times the volume of the cerebral cortex). The mixture was crushed with a 50 ml glass tissue homogenizer in batches and mixed well.
3. The mixture was centrifuged at 1500 g, 4° C. for 10 minutes, and the supernatant was collected.
4. The mixture was centrifuged at 20000 g, 4° C. for 30 minutes, and the supernatant was discarded.
5. The precipitate was resuspended with the pre-chilled phosphate buffer saline (PBS) (one tablet of protease inhibitor was added per 100 ml). An average of 4 ml of PBS was added per rat, and the mixture was mixed well with a glass tissue homogenizer.
6. The mixture was centrifuged at 10000 g, 4° C. for 10 minutes, and the supernatant was discarded.
7. Steps 5 and 6 were repeated three times.
8. Finally, the precipitate was resuspended with 4 volumes of PBS. The resulting solution was dispensed, frozen in liquid nitrogen, and stored at −80° C.
9. The protein concentration was measured by the bicinchoninic acid (BCA) method.
1.2.2 ^35S-TBPS Binding Assay
1. 230 μL of PBS was added to each well of a well plate with 1.1 ml volume.
2. 60 μL of the cerebral cortex cell membrane (5 μg/μL) solution was added to each well, and the mixture was mixed well.
3. The test compound (3 μL per well) was added, and the plate was incubated at 25° C. for 5 minutes. The DMSO concentration was 1%. The initial compound concentration was 1 NM, and a 3-fold dilution in gradient was carried out to obtain a total of 8 gradients and 2 replicates. 1% DMSO was used as a negative control, and 10 μM P026-2 was used as a positive control.
4. GABA was added at a final concentration of […], and incubated at 25° C. for 5 minutes. 1 mM GABA solution was formulated, and 1.5 μL of the solution was added to each well.
5. ^35S-TBPS was added at a final concentration of 2 nM. The concentration of isotope mother solution was 9.7 μM. After dilution with PBS for 100 times, 6 μL of the diluted isotope solution was added to each well.
6. The plate was incubated at 4° C. for 20 hours.
7. The FilterMate GF/C plate was pre-treated with 0.5% PEI, and incubated at 4° C. for 1 hour.
8. The FilterMate GF/C plate was washed with Universal Harvester twice, 50 ml PBS each time.
9. The reaction solution was transferred to the GF/C plate, and each well was washed 4 times with 900 μL PBS.
10. The washed GF/C plate was placed at 55° C. and dried for 10 minutes.
11. 40 μL of scintillation solution was added to each well, and the CPM value was read with TopCount.
1.2.3 Experimental Data Processing Method:
In the experiment, the CPM (counts per minute) value was read with TopCount. According to the readings of the High control (DMSO) and the Low control (10 μM of the positive compound) experimental groups, the % inhibition was calculated based on the following formula: % Inhibition=100×(CPMHigh control−CPMSample)/(CPMHigh control−CPMLow control)
The IC50 of the compound was calculated according to the following 4-parameter nonlinear logic formula: Y=Bottom+(Top−Bottom)/(1+10^((Log IC50−X)*Hill Slope)),
The effect of the compound of the present invention on the TBPS binding activity was determined by the above test, and the measured IC50 values are shown in Table 1.
Consider `C[C@@]1(O)CC[C@@]2(F)[C@H](CC[C@H]3[C@@H]4CC[C@H](C(=O)COc5ccc(F)cc5C#N)[C@@]4(C)CC[C@@H]32)C1` [Example 30, 5-Fluoro-2-(2-((3R,5R,8S,9S,10R,13S,14S,17S)-10-fluoro-3-hydroxy-3,13-dimethylhexadecahydro-1H-cyclopenta[a]phenanthren-17-yl)-2-oxoethoxy)benzonitrile], for which the pIC50 was 8.14.
Under `COc1ccc2nnn(CC(=O)[C@H]3CC[C@H]4[C@@H]5CC[C@@H]6C[C@](C)(O)CC[C@]6(F)[C@H]5CC[C@]34C)c2c1` [Example 47, 1-((3R,5R,8S,9S,10R,13S,14S,17S)-10-Fluoro-3-hydroxy-3,13-dimethylhexadecahydro-1H-cyclopenta[a]phenanthren-17-yl)-2-(6-methoxy-1H-benzo[d][1,2,3]triazol-1-yl)ethan-1-one] stands 8.14.
Under `CCOC(=O)c1cnn(CC(=O)[C@H]2CC[C@H]3[C@@H]4CC[C@@H]5C[C@](C)(O)CC[C@]5(F)[C@H]4CC[C@]23C)c1` [Example 59, Ethyl 1-(2-((3R,5R,8S,9S,10R,13S,14S,17S)-10-fluoro-3-hydroxy-3,13-dimethylhexadecahydro-1H-cyclopenta[a]phenanthren-17-yl)-2-oxoethyl)-1H-pyrazole-4-carboxylate] stands 8.03; under `C[C@@]1(O)CC[C@@]2(F)[C@H](CC[C@H]3[C@@H]4CC[C@H](C(=O)CNc5cnoc5)[C@@]4(C)CC[C@@H]32)C1` [Example 45, 1-((3R,5R,8S,9S,10R,13S,14S,17S)-10-Fluoro-3-hydroxy-3,13-dimethylhexadecahydro-1H-cyclopenta[a]phenanthren-17-yl)-2-(isoxazol-4-ylamino)ethan-1-one], 7.46.
Regarding `C[C@@]1(O)CC[C@@]2(F)[C@H](CC[C@H]3[C@@H]4CC[C@H](C(=O)Cn5cc(C(=O)N6CCC6)cn5)[C@@]4(C)CC[C@@H]32)C1` [Example 62, 2-(4-(Azetidine-1-carbonyl)-1H-pyrazol-1-yl)-1-((3R,5R,8S,9S,10R,13S,14S,17S)-10-fluoro-3-hydroxy-3,13-dimethylhexadecahydro-1H-cyclopenta[a]phenanthren-17-yl)ethan-1-one], the pIC50 was 8.15.
On to `C[C@@]1(O)CC[C@@]2(F)[C@H](CC[C@H]3[C@@H]4CC[C@H](C(=O)Cn5nnc6ccccc65)[C@@]4(C)CC[C@@H]32)C1` [Example 15, 2-(1H-Benzo[d][1,2,3]triazol-1-yl)-1-((3R,5R,8S,9S,10R,13S,14S,17S)-10-fluoro-3-hydroxy-3,13-dimethylhexadecahydro-1H-cyclopenta[a]phenanthren-17-yl)ethan-1-one], for which the negative-log IC50 (pIC50) was 8.06.
For the compound `C[C@@]1(O)CC[C@@]2(F)[C@H](CC[C@H]3[C@@H]4CC[C@H](C(=O)COc5ccc(C#N)cc5F)[C@@]4(C)CC[C@@H]32)C1` [Example 31, 3-Fluoro-4-(2-((3R,5R,8S,9S,10R,13S,14S,17S)-10-fluoro-3-hydroxy-3,13-dimethylhexadecahydro-1H-cyclopenta[a]phenanthren-17-yl)-2-oxoethoxy)benzonitrile], the pIC50 was 7.95.
Regarding `C[C@@]1(O)CC[C@@]2(F)[C@H](CC[C@H]3[C@@H]4CC[C@H](C(=O)Cn5nc6ccccc6n5)[C@@]4(C)CC[C@@H]32)C1` [Example 14, 2-(2H-Benzo[d][1,2,3]triazol-2-yl)-1-((3R,5R,8S,9S,10R,13S,14S,17S)-10-fluoro-3-hydroxy-3,13-dimethylhexadecahydro-1H-cyclopenta[a]phenanthren-17-yl)ethan-1-one], the pIC50 is 7.98.
`COc1ccc2c(c1)nnn2CC(=O)[C@H]1CC[C@H]2[C@@H]3CC[C@@H]4C[C@](C)(O)CC[C@]4(F)[C@H]3CC[C@]12C` [Example 48, 1-((3R,5R,8S,9S,10R,13S,14S,17S)-10-Fluoro-3-hydroxy-3,13-dimethylhexadecahydro-1H-cyclopenta[a]phenanthren-17-yl)-2-(5-methoxy-1H-benzo[d][1,2,3]triazol-1-yl)ethan-1-one]: the pIC50 was 8.14.
Under `C[C@@]1(O)CC[C@@]2(F)[C@H](CC[C@H]3[C@@H]4CC[C@H](C(=O)Cn5nccn5)[C@@]4(C)CC[C@@H]32)C1` [Example 10, 1-((3R,5R,8S,9S,10R,13S,14S,17S)-10-Fluoro-3-hydroxy-3,13-dimethylhexadecahydro-1H-cyclopenta[a]phenanthren-17-yl)-2-(2H-1,2,3-triazol-2-yl)ethan-1-one] stands 8.28.
Under `C[C@@]1(O)CC[C@@]2(F)[C@H](CC[C@H]3[C@@H]4CC[C@H](C(=O)COc5ccc(C#N)c(F)c5)[C@@]4(C)CC[C@@H]32)C1` [Example 35, 2-Fluoro-4-(2-((3R,5R,8S,9S,10R,13S,14S,17S)-10-fluoro-3-hydroxy-3,13-dimethylhexadecahydro-1H-cyclopenta[a]phenanthren-17-yl)-2-oxoethoxy)benzonitrile] stands 7.82.
Consider `C[C@@]1(O)CC[C@@]2(F)[C@H](CC[C@H]3[C@@H]4CC[C@H](C(=O)Cn5cc6ccncc6n5)[C@@]4(C)CC[C@@H]32)C1` [Example 16, 1-((3R,5R,8S,9S,10R,13S,14S,17S)-10-Fluoro-3-hydroxy-3,13-dimethylhexadecahydro-1H-cyclopenta[a]phenanthren-17-yl)-2-(2H-pyrazolo[3,4-c]pyridin-2-yl)ethan-1-one], for which the negative logarithm of the IC50 (pIC50) is 7.40.
On to `C[C@@]1(O)CC[C@@]2(F)[C@H](CC[C@H]3[C@@H]4CC[C@H](C(=O)Cn5cc(Cl)cn5)[C@@]4(C)CC[C@@H]32)C1` [Example 37, 2-(4-Chloro-1H-pyrazol-1-yl)-1-((3R,5R,8S,9S,10R,13S,14S,17S)-10-fluoro-3-hydroxy-3,13-dimethylhexadecahydro-1H-cyclopenta[a]phenanthren-17-yl)ethan-1-one], for which the pIC50 is 7.77.
With `COc1ccc2nn(CC(=O)[C@H]3CC[C@H]4[C@@H]5CC[C@@H]6C[C@](C)(O)CC[C@]6(F)[C@H]5CC[C@]34C)nc2c1` [Example 46, 1-((3R,5R,8S,9S,10R,13S,14S,17S)-10-Fluoro-3-hydroxy-3,13-dimethylhexadecahydro-1H-cyclopenta[a]phenanthren-17-yl)-2-(5-methoxy-2H-benzo[d][1,2,3]triazol-2-yl)ethan-1-one], the pIC50 is 8.25.
In the case of `C[C@@]1(O)CC[C@]2(F)C3CC[C@]4(C)[C@@H](C(=O)Cn5ncc(C6CC6)n5)CC[C@H]4[C@@H]3CC[C@@H]2C1` (stereo partly drawn) [Example 63, 2-(4-Cyclopropyl-2H-1,2,3-triazol-2-yl)-1-((3R,5R,8S,10R,13S,14S,17S)-10-fluoro-3-hydroxy-3,13-dimethylhexadecahydro-1H-cyclopenta[a]phenanthren-17-yl)ethan-1-one], the pIC50 is 7.59.

(Values after patent US11661437B2, “Steroid derivative regulators, method for preparing the same, and uses thereof” (priority 2018, dated 2023).)
